According to publication PMC8623418, “Novel Multitarget Hydroxamic Acids with a Natural Origin CAP Group against Alzheimer’s Disease: Synthesis, Docking and Biological Evaluation” (Pharmaceutics, 2021):

What was measured:
Type in all cases: biochemical
HDAC6 = biological target: T1, HDAC6 (Homo sapiens, UniProt Q9UBN7); assay: HDAC6 enzyme activity, FLUOR DE LYS fluorometric kit; details: mean ± SEM; read-out: IC50 HDAC6 Inhibitory Activity
T1 construct: purchased Enzo Life Sciences (Enzo Biochem, New York, NY, USA)
T1 sequence (Q9UBN7 1-1215): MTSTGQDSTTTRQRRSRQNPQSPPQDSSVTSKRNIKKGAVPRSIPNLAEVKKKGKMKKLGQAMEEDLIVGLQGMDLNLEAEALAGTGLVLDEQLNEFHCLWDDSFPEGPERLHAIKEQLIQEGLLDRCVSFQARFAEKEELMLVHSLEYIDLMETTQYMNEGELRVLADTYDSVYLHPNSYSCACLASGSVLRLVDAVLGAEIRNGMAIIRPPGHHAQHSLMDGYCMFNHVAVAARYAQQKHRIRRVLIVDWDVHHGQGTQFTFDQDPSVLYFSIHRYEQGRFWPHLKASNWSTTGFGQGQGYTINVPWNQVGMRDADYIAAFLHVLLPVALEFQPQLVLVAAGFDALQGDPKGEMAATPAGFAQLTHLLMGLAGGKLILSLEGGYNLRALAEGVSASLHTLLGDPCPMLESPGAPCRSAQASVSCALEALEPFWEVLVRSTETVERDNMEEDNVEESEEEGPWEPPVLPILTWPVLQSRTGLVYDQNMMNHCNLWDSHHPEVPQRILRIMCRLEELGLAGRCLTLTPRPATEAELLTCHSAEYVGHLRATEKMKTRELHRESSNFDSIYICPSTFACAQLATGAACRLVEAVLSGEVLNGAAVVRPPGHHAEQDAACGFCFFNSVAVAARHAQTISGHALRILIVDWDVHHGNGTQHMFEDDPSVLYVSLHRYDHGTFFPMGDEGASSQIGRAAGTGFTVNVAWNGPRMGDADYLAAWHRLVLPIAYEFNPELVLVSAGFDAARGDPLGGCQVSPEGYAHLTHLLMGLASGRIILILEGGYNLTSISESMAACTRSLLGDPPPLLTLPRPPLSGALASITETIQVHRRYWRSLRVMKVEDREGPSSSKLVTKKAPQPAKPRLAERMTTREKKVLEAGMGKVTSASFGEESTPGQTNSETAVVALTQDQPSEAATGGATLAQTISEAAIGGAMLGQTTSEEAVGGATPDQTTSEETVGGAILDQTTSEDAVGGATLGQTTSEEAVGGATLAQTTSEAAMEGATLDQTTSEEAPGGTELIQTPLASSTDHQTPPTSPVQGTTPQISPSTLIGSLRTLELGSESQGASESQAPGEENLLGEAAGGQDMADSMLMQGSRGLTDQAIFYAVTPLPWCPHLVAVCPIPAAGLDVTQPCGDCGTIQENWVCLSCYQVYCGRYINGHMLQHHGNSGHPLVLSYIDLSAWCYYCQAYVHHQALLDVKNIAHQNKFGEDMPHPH

β-amyloid 1–42 = system: T2, β-amyloid 1–42; assay: β-amyloid 1–42 aggregation, Thioflavin T fluorescence; details: 100 μM, 72 h incubation
T2 construct: fragments Aβ1–40 and Aβ1–42
Method: The effect of the studied compounds on the aggregation of β-amyloid (1–40/1–42) was analyzed using the method of recording Thioflavin T fluorescence (10 µM) for 72 h at 37 °C. The fluorescence signal was measured using a multifunctional flatbed analyzer, the Cytation ™ 3 (BioTek Instruments, Inc., Winooski, VT, USA), at λex = 450 nm, λem = 480 nm.
The effect of hydroxamic acids on the stage of aggregation of the pathological β-amyloid peptide was investigated for 72 h using two model systems—fragments Aβ1–40 and Aβ1–42. The fluorophore Thioflavin T was used as an indicator of the ongoing fibrillation process, the interaction of which with proteins in the state of amyloid fibrils leads to an increase in the fluorescence signal.

[1] = system: lipid peroxidation (LPO) of rat brain homogenate; assay: Lipid peroxidation (LPO) of rat brain homogenate, TBARS test; details: substances at 100 μM, mean ± SEM; for % of Activity, Inhibition of LPO, Fe (II): Fe (II)-induced; for % of Activity, Inhibition of LPO, t-BHP: t-BHP-induced
Method: To obtain the brain homogenate, rats preliminarily anesthetized with CO2 were decapitated with a guillotine. The brain was homogenized in a buffer containing KCl (120 mM) and HEPES (20 mM), pH = 7.4 at 4 °C, and centrifuged at 1500 rpm to obtain a supernatant. The protein was quantified according to the standard microbiuret method.
To investigate the effect of the compounds on lipid peroxidation (LPO) of rat brain homogenate, we used the modified version of the TBARS test, which is based on the reaction of 2-thiobarbituric acid with the end LPO product—malonic dialdehyde (MDA). The plate well, according to the experimental scheme, contained the compounds under study (100 μM), rat brain homogenate (2 mg/mL), as well as ferrous iron ions ([…]) at a concentration of 500 μM and 1.6 mM tert-butyl hydroxyperoxide as an initiator. After 30 min of incubation at 37 °C, TBARS reagent was added to all samples, incubated for 90 min at 90 °C, and centrifuged at 6000 rpm for 15 min. The optical density of the selected supernatant was measured on a Victor 3 plate reader (Perkin Elmer) at λ = 540 nm.
A rat brain homogenate preparation containing fragments of cell membranes was used as a model system to investigate the antioxidant activity of the hydroxamic acids. To initiate the process of lipid peroxidation, ferrous ions were used to trigger the Fenton reaction, during which the iron valence changes and a highly reactive hydroxyl radical is formed, and tert-butyl hydroxyperoxide as a direct source of free radicals.

| SMILES | IC50 (HDAC6) [µM] | Effect on β-amyloid 1–42 aggregation (β-amyloid 1–42) | % of Activity, Inhibition of LPO, Fe (II) [1] [%] | % of Activity, Inhibition of LPO, t-BHP [1] [%] |
| --- | --- | --- | --- | --- |
| O=C(/C=C/c1ccc(C(=O)NO)cc1)NC1C2CC3CC(C2)CC1C3 (centres unmarked) [compound 25, 4-((E)-3-((-Adamantan-2-yl)amino)-3-Oxoprop-1-en-1-yl)-N-Hydroxybenzamide] | 6.52 ± 0.4 | noticeable fibrillation inhibition | 19.81 ± 4.83 | 44.59 ± 1.73 |
| O=C(CCCCCCC(=O)NC1C2CC3CC(C2)CC1C3)NO (centres unmarked) [compound 15, N^1-(Adamant-2-yl)-N^8-Hydroxyoctanediamide] | 0.96 ± 0.01 | noticeable fibrillation inhibition | 21.52 ± 2.15 | 43.24 ± 1.28 |
